Measured values: US9493480B2, “Monomeric trioxane amide sulfur compounds” (THE JOHNS HOPKINS UNIVERSITY, priority 2011, dated 2016)
“Also recorded” adds a separate entry of the source.

Tests used:
[1] = system: Plasmodium berghei, ANKA malaria strain; assay: In vivo antimalarial efficacy, single oral dose of trioxane combined with mefloquine hydrochloride in P. berghei infected mice; details: for mouse survival in words: single oral dose 100 mg/kg; for cure outcome (survival to day 30 with no detectable parasites = complete cure): single oral dose of trioxane (6 mg/kg) combined with mefloquine hydrochloride (18 mg/kg); for parasitemia on day 30 after infection in surviving mice: value of one mouse where so stated
Method: […] Rosenthal, A. S., et al., Malaria-infected Mice are Cured by a Single Oral Dose of New Dimeric Trioxane Sulfones Which are Also Selectively and Powerfully Cytotoxic to Cancer Cells. J. Med. Chem. 2009, 52, 1198-1203. Each of four mice in a group was treated orally 24 hours post infection with a single dose of 0.20 mL [(0.20 mL/1.07 mL)×0.64 mg=0.12 mg] of diluted trioxane solution, […] Alternatively, a single dose of 7.5 mg/kg of trioxane plus 15.0 mg/kg of mefloquine hydrochloride was used. The malariometrics used involved determining blood parasitemia levels, as well as monitoring the duration of animal survival compared to survival time of infected animals receiving no drug.
The average survival time of the malaria-infected animals receiving no drug was 6.8 days post infection. All of the infected mice in this study receiving the trioxane drug artemether (2b) plus mefloquine died on the average on day 18.8 post infection (Table 1, controls). Additionally, a single oral dose of artemether (6 mg/kg) plus lumefantrine (18 mg/kg) was not curative (see Table 1), with the mice dying an average of 12.5 days after infection. […]
(§1) A widely accepted indication of complete cure (i.e., 100% efficacy) is survival of animals to day 30 post infection with no detectable malaria parasites in the animals' blood at that time. It is important to note that the combination of the standard trioxane drug artemether (2b), with either mefloquine hydrochloride or lumefantrine, was not curative (Table 1, controls). […] While 3-fluoroanilide 12b was not curative, administration of 3-methylthioether 3-arteSanilide 12d at a dose of 7.5 mg/kg plus 15 mg/kg mefloquine hydrochloride achieved mouse survival through day 30 after infection; however, all four of the surviving mice appeared sick and had considerable parasitemia levels (25-50%). […] In addition, 3-arteSanilide 12d is more efficacious than 4-arteSanilide 12c. […] Replacing the sulfur atom in 12d with an oxygen atom afforded methyl ether 12p, which prolonged survival time to only 21.8 days after infection. This observation indicates the critical nature of the sulfur atom. In addition, the lipophilicity of 3-arteSanilide 12d was increased by lengthening the alkyl sulfide chain from methyl to n-propyl. 3-n-Propyl sulfide 12l, however, is much less efficacious than the curative methyl sulfide 3-arteSanilide 12d.

[2] = system: P. falciparum (NF54) Parasites; assay: In vitro antimalarial potencies of trioxanes against P. falciparum (NF54) parasites; format: cell-based; details: Plasmodium falciparum, M ± SD of at least four determinations
Method: Biology: In Vitro Potencies. Prompted by the unexpected in vivo efficacy of 3-arteSanilide 12d, the in vitro the intrinsic antimalarial activity, free of host-mediated factors, was assayed of compounds that differ in the oxidative state of the sulfur atom (Table 2).

[3] = Stability of the neat compound at 60° C.; format: physicochemical; details: absence of solvent
Text: Hydroboration-oxidation followed by oxidation of the resulting primary alcohol produced C-10 carboxylic acid 11. Posner, G. H., et al., Orally Active, Antimalarial, Anticancer, Artemisinin-derived Trioxane Dimers with High Stability and Efficacy. J. Med. Chem. 2003, 46, 1060-1065. Condensation of carboxylic acid 11 with various anilines yielded a library of C-10 monomeric trioxane anilides 12b-h, 12l, 12o-q (FIG. 2). Scale up synthesis is expected to be straightforward. Without wishing to be bound to any one particular theory, because these anilides 12b-q are C-10 non-acetal derivatives, they are more hydrolytic ally stable than the C-10 acetal first generation artemisinin derivatives, such as artemether (2b) or artesunate (2c). In the absence of solvent, neat 3-arteSanilide 12d, for example, is stable for at least 7 days at 60° C.

[4] = Overt toxicity, behavior and weight gain of treated malaria-infected mice; format: in vivo; details: for toxicity of single oral dose: single oral dose 100 mg/kg, no mefloquine
Method: as §1

[5] = system: P388 leukemia; details: NCI Report on NSC 369397, tested on 25 Oct. 1983; cited from earlier work
[6] = single oral dose: trioxane 7.5 mg/kg + mefloquine hydrochloride 15 mg/kg
[7] = single oral dose: trioxane 7.5 mg/kg + mefloquine hydrochloride 15 mg/kg, mice, 4 per group
[8] = Plasmodium berghei, 72 h, single oral dose: trioxane 100 mg/kg, no mefloquine, read-out: % suppression of parasitemia (on day 3 after infection)
[9] = single oral dose 24 h post infection: trioxane 6 mg/kg + mefloquine hydrochloride 18 mg/kg, C57BL/6J male mice, 4 per group
[10] = single oral dose: trioxane 6 mg/kg + mefloquine hydrochloride 18 mg/kg
[11] = single oral dose: trioxane 100 mg/kg, no mefloquine
[12] = single oral dose: artemether 6 mg/kg + lumefantrine 18 mg/kg
[13] = mefloquine hydrochloride alone, single oral dose 15 mg/kg
[14] = mefloquine hydrochloride alone, single oral dose 18 mg/kg

Row | Structure (SMILES) | % suppression of parasitemia (on day 3 after infection) [1, 6] [%] | average survival (days) after infection [1, 7] [days] | average survival (days) after infection [1, 9] [days] | % suppression of parasitemia (on day 3 after infection) [1, 10] [%] | EC50 [2] [nM] | also measured
1 | CSc1ccc(NC(=O)CC[C@H]2O[C@@H]3O[C@@]4(C)CC[C@H]5[C@H](C)CC[C@@H]([C@H]2C)[C@@]35OO4)cc1 [12c, 4-arteSanilide] | >99.9 | 16.3 | – | – | – | –
2 | CSc1cccc(NC(=O)CC[C@H]2O[C@@H]3O[C@@]4(C)CC[C@H]5[C@H](C)CC[C@@H]([C@H]2C)[C@@]35OO4)c1 [12d, 3-arteSanilide] | >99.9 | 30 | 30 | >99.9 | 9.1 ± 0.57 | inhibition in vivo at 100 mg/kg [1, 8]: 97.2%; parasitemia in uninfected mice inoculated with blood from the cured mice ([1]; donors: 6 mg/kg trioxane + 18 mg/kg mefloquine, read after 30 days): no parasitemia was detected; mouse survival in words ([1]; no mefloquine): prolonged mouse survival; cure outcome (survival to day 30 with no detectable parasites = complete cure) [1]: complete cure; also recorded: cures malaria-infected mice; parasitemia on day 30 after infection in surviving mice [1, 10]: ^bNo parasitemia detected on day 30 after infection.; average survival (days) after infection [1, 11]: 15.0 days; time stable, neat [3]: at least 7 days; weight gain by day 30 after infection ([4]; 6 mg/kg trioxane + 18 mg/kg mefloquine, compared with uninfected control mice): gained as much weight by day 30 after infection (data not shown) as the uninfected control mice; also recorded: gain as much weight as the control mice; overt toxicity or behavioral change attributable to trioxane administration ([4]; malaria-infected mice cured by trioxane combined with mefloquine hydrochloride): neither overt toxicity nor behavioral change; toxicity of single oral dose [4]: nontoxic
3 | CSc1ccccc1NC(=O)CC[C@H]1O[C@@H]2O[C@@]3(C)CC[C@H]4[C@H](C)CC[C@@H]([C@H]1C)[C@@]24OO3 [12e, 2-arteSanilide] | – | – | 27.0 | >99.9 | – | –
4 | CSc1cc(NC(=O)CC[C@H]2O[C@@H]3O[C@@]4(C)CC[C@H]5[C@H](C)CC[C@@H]([C@H]2C)[C@@]35OO4)cc(SC)c1 [12f, 3,5-arteSSanilide] | – | – | 30 | >99.9 | 6.5 ± 0.28 | inhibition in vivo at 100 mg/kg [1, 8]: 97.9%; mouse survival in words ([1]; no mefloquine): essentially no increase in mouse longevity; cure outcome (survival to day 30 with no detectable parasites = complete cure) [1]: partially curative; parasitemia on day 30 after infection in surviving mice [1, 10]: 5% and ^dThree mice were parasite-free on day 30, but one mouse had 5% parasitemia on day 30 after infection.; average survival (days) after infection [1, 11]: 7.5 days; toxicity of single oral dose [4]: nontoxic
5 | C[C@H]1[C@@H](CCC(=O)Nc2cccc([S+](C)[O-])c2)O[C@@H]2O[C@@]3(C)CC[C@H]4[C@H](C)CC[C@@H]1[C@@]24OO3 (stereo partly shown) [12g] | – | – | 23.0 | >99.9 | 23 ± 1.3 | cure outcome (survival to day 30 with no detectable parasites = complete cure) [1]: does not
6 | C[C@H]1[C@@H](CCC(=O)Nc2cccc([S+](C)[O-])c2)O[C@@H]2O[C@]3(C)CC[C@H]4[C@H](C)CC[C@@H]1[C@@]24OO3 (stereo partly shown) [12h] | – | – | 30 | >99.9 | 29 ± 0.43 | cure outcome (survival to day 30 with no detectable parasites = complete cure) [1]: partially curative; parasitemia on day 30 after infection in surviving mice [1, 10]: ^eOne mouse had 1.8% parasitemia on day 30 after infection.
7 | C[C@H]1[C@@H](CCC(=O)Nc2ccc(S(C)(=O)=O)cc2)O[C@@H]2O[C@]3(C)CC[C@H]4[C@H](C)CC[C@@H]1[C@@]24OO3 [12i] | >99.9 | 22.5 | – | – | – | –
8 | C[C@H]1[C@@H](CCC(=O)Nc2cccc(S(C)(=O)=O)c2)O[C@@H]2O[C@@]3(C)CC[C@H]4[C@H](C)CC[C@@H]1[C@@]24OO3 [12j] | 99.9 | 15.5 | – | – | 21 ± 1.1 | –
9 | C[C@H]1[C@@H](CCC(=O)Nc2ccccc2S(C)(=O)=O)O[C@@H]2O[C@]3(C)CC[C@H]4[C@H](C)CC[C@@H]1[C@@]24OO3 [12k] | >99.9 | 22.8 | – | – | – | –
10 | CCCSc1cccc(NC(=O)CC[C@H]2O[C@@H]3O[C@]4(C)CC[C@H]5[C@H](C)CC[C@@H]([C@H]2C)[C@@]35OO4)c1 [12l] | – | – | 23.0 | >99.9 | – | –
11 | CCCS(=O)(=O)c1cccc(NC(=O)CC[C@H]2O[C@@H]3O[C@]4(C)CC[C@H]5[C@H](C)CC[C@@H]([C@H]2C)[C@@]35OO4)c1 [12m] | – | – | 11.0 | >99.9 | – | –
12 | CCCS(=O)(=O)c1ccccc1NC(=O)CC[C@H]1O[C@@H]2O[C@]3(C)CC[C@H]4[C@H](C)CC[C@@H]([C@H]1C)[C@@]24OO3 [12n] | – | – | 21.8 | >99.9 | – | –
13 | C[C@H]1[C@@H](CCC(=O)Nc2ccc(S(C)(=O)=O)cc2Cl)O[C@@H]2O[C@]3(C)CC[C@H]4[C@H](C)CC[C@@H]1[C@@]24OO3 [12o] | >99.9 | 24.5 | – | – | – | –
14 | COc1cccc(NC(=O)CC[C@H]2O[C@@H]3O[C@]4(C)CC[C@H]5[C@H](C)CC[C@@H]([C@H]2C)[C@@]35OO4)c1 [12p] | – | – | 21.8 | >99.9 | – | –
15 | CCCCCCOc1ccc(NC(=O)CC[C@H]2O[C@@H]3O[C@]4(C)CC[C@H]5[C@H](C)CC[C@@H]([C@H]2C)[C@@]35OO4)cc1 [12q] | >99.9 | 15.0 | – | – | – | –
16 | C[C@@H]1CC[C@H]2[C@@H](C)C(=O)O[C@@H]3O[C@@]4(C)CC[C@@H]1[C@]32OO4 [Artemisinin (1), artemisinin, reference compound] | – | – | – | – | 10 ± 1.1 | activity against P388 leukemia [5]: inactive
17 | CO[C@H]1O[C@@H]2O[C@@]3(C)CC[C@H]4[C@H](C)CC[C@@H]([C@H]1C)[C@@]24OO3 [artemether (2b), artemether, reference compound] | >99.9 | 19.8 | 18.8 | >99.9 | – | % suppression of parasitemia (on day 3 after infection) [1, 12]: >99.9%; average survival (days) after infection [1, 12]: 12.5 days
18 | CCCCN(CCCC)CC(O)c1cc(Cl)cc2c1-c1ccc(Cl)cc1/C2=C/c1ccc(Cl)cc1 (stereo not shown) [lumefantrine, reference compound] | – | – | – | – | – | inhibition in vivo at 18 mg/kg ([1]; Plasmodium berghei, po, 72 h, read-out: % suppression of parasitemia (on day 3 after infection)): > 99.9%; average survival (days) after infection ([1]; lumefantrine alone, single oral dose 18 mg/kg): 21.5 days
19 | Cl.OC(c1cc(C(F)(F)F)nc2c(C(F)(F)F)cccc12)C1CCCCN1 (stereo not shown) [mefloquine, mefloquine hydrochloride, reference compound] | – | – | – | – | – | % suppression of parasitemia (on day 3 after infection) [1, 13]: >99.9%; average survival (days) after infection [1, 13]: 15.5 days; % suppression of parasitemia (on day 3 after infection) [1, 14]: >99.9%; average survival (days) after infection [1, 14]: 19.8 days
